Experimental data reported in ChEMBL document CHEMBL4339221, “Investigating the Anticancer Activity of Isatin/Dihydropyrazole Hybrids” (ACS Med Chem Lett, 2019).

Legend:
A549 [1] = assay: Antiproliferative activity against human A549 cells assessed as cell growth at 10 uM incubated for 72 hrs by MTT assay relative to untreated control; type: functional; conditions: A549, 72 h, read-out: Activity
[2] = Antiproliferative activity against human IGR-39 cells assessed as cell growth at 10 uM incubated for 72 hrs by MTT assay relative to untreated control; type: functional; conditions: IGR-39, 72 h, read-out: Activity
U-87 MG [3] = assay: Antiproliferative activity against human U87 cells assessed as cell growth at 10 uM incubated for 72 hrs by MTT assay relative to untreated control; type: functional, U-87MG ATCC; conditions: read-out: Activity
MDA-MB-231 = assay: Antiproliferative activity against human MDA-MB-231 cells assessed as cell growth at 10 uM incubated for 72 hrs by MTT assay relative to untreated control; type: functional; conditions: MDA-MB-231, 72 h, read-out: Activity
MCF7 [4] = assay: Antiproliferative activity against human MCF7 cells assessed as cell growth at 10 uM incubated for 72 hrs by MTT assay relative to untreated control; type: functional; conditions: MCF7, 72 h, read-out: Activity
BT-474 [5] = assay: Antiproliferative activity against human BT474 cells assessed as cell growth at 10 uM incubated for 72 hrs by MTT assay relative to untreated control; type: functional; conditions: BT-474, 72 h, read-out: Activity
BXPC-3 [6] = assay: Antiproliferative activity against human BxPC3 cells assessed as cell growth at 10 uM incubated for 72 hrs by MTT assay relative to untreated control; type: functional; conditions: BXPC-3, 72 h, read-out: Activity
SK-OV-3 = assay: Antiproliferative activity against human SKOV3 cells assessed as cell growth at 10 uM incubated for 72 hrs by MTT assay relative to untreated control; type: functional; conditions: SK-OV-3, 72 h, read-out: Activity
NCI-H1299 [7] = assay: Antiproliferative activity against human NCI-H1299 cells assessed as cell growth at 10 uM incubated for 72 hrs by MTT assay relative to untreated control; type: functional; conditions: NCI-H1299, 72 h, read-out: Activity
[8] = Antiproliferative activity against human NHFB cells assessed as cell growth at 10 uM incubated for 72 hrs by MTT assay relative to untreated control; type: cell-based; conditions: read-out: Activity
[9] = Antiproliferative activity against human IGR-39 cells assessed as reduction in cell growth incubated for 72 hrs by MTT assay; type: functional, cell-based; conditions: IGR-39, 72 h
U-87 MG [10] = assay: Antiproliferative activity against human U87 cells assessed as reduction in cell growth incubated for 72 hrs by MTT assay; type: functional, cell-based, U-87MG ATCC
A549 [11] = assay: Antiproliferative activity against human A549 cells assessed as reduction in cell growth incubated for 72 hrs by MTT assay; type: functional, cell-based; conditions: A549, 72 h
MCF7 [12] = assay: Antiproliferative activity against human MCF7 cells assessed as reduction in cell growth incubated for 72 hrs by MTT assay; type: functional, cell-based; conditions: MCF7, 72 h
BT-474 [13] = assay: Antiproliferative activity against human BT474 cells assessed as reduction in cell growth incubated for 72 hrs by MTT assay; type: functional, cell-based; conditions: BT-474, 72 h
BXPC-3 [14] = assay: Antiproliferative activity against human BxPC3 cells assessed as reduction in cell growth incubated for 72 hrs by MTT assay; type: functional, cell-based; conditions: BXPC-3, 72 h
NCI-H1299 [15] = assay: Antiproliferative activity against human NCI-H1299 cells assessed as reduction in cell growth incubated for 72 hrs by MTT assay; type: functional, cell-based; conditions: NCI-H1299, 72 h
[16] = Antiproliferative activity against human NHFB cells assessed as reduction in cell growth incubated for 72 hrs by MTT assay; type: cell-based

## COc1ccc(C2CC(c3cccs3)=NN2C2=NC(=O)/C(=C3/C(=O)Nc4c(Br)cccc43)S2)cc1 (stereo not given)
A549 [1]
  growth at 10 µM: 86.1%
[2]
  growth at 10 µM: 101%
U-87 MG [3]
  growth at 10 µM: 57%
MDA-MB-231
  growth at 10 µM: 73.9%
MCF7 [4]
  growth at 10 µM: 126%
BT-474 [5]
  growth at 10 µM: 94.3%
BXPC-3 [6]
  growth at 10 µM: 53.7%
SK-OV-3
  growth at 10 µM: 88%
NCI-H1299 [7]
  growth at 10 µM: 89.2%
[8]
  viability at 72 h, 10 µM: 46.3%

## COc1ccc(C2CC(c3ccc4ccccc4c3)=NN2C2=NC(=O)/C(=C3/C(=O)Nc4c(F)cccc43)S2)cc1 (stereo not given)
A549 [1]
  growth at 10 µM: 86.5%
[2]
  growth at 10 µM: 109%
U-87 MG [3]
  growth at 10 µM: 86.2%
MDA-MB-231
  growth at 10 µM: 87.3%
MCF7 [4]
  growth at 10 µM: 118%
BT-474 [5]
  growth at 10 µM: 112%
BXPC-3 [6]
  growth at 10 µM: 73.1%
SK-OV-3
  growth at 10 µM: 67.7%
NCI-H1299 [7]
  growth at 10 µM: 60.5%
[8]
  viability at 72 h, 10 µM: 89.4%

## COc1ccc(C2CC(c3cccs3)=NN2C2=NC(=O)/C(=C3/C(=O)Nc4ccc(F)cc43)S2)cc1 (stereo not given)
A549 [1]
  growth at 10 µM: 63.6%
[2]
  growth at 10 µM: 28.1%
U-87 MG [3]
  growth at 10 µM: 14.4%
MDA-MB-231
  growth at 10 µM: 81.5%
MCF7 [4]
  growth at 10 µM: 112%
BT-474 [5]
  growth at 10 µM: 102%
BXPC-3 [6]
  growth at 10 µM: 77.2%
SK-OV-3
  growth at 10 µM: 94.1%
NCI-H1299 [7]
  growth at 10 µM: 68.3%
[8]
  viability at 72 h, 10 µM: 20%

## COc1ccc(C2CC(c3cccs3)=NN2C2=NC(=O)/C(=C3/C(=O)Nc4ccc(Cl)cc43)S2)cc1 (stereo not given)
A549 [1]
  growth at 10 µM: 22.4%
[2]
  growth at 10 µM: 0.9%
U-87 MG [3]
  growth at 10 µM: 4.35%
MDA-MB-231
  growth at 10 µM: 80.4%
MCF7 [4]
  growth at 10 µM: 112%
BT-474 [5]
  growth at 10 µM: 86.8%
BXPC-3 [6]
  growth at 10 µM: 59.6%
SK-OV-3
  growth at 10 µM: 56.6%
NCI-H1299 [7]
  growth at 10 µM: 117%
[8]
  viability at 72 h, 10 µM: 47.5%
[9]
  EC50: 2.97 µM
U-87 MG [10]
  EC50: 5.76 µM

## COc1ccc(C2CC(c3cccs3)=NN2C2=NC(=O)/C(=C3/C(=O)Nc4c(C)cc(C)cc43)S2)cc1 (stereo not given)
A549 [1]
  growth at 10 µM: 104%
[2]
  growth at 10 µM: 117%
U-87 MG [3]
  growth at 10 µM: 126%
MDA-MB-231
  growth at 10 µM: 111%
MCF7 [4]
  growth at 10 µM: 114%
BT-474 [5]
  growth at 10 µM: 103%
BXPC-3 [6]
  growth at 10 µM: 72.3%
SK-OV-3
  growth at 10 µM: 79.9%
NCI-H1299 [7]
  growth at 10 µM: 120%
[8]
  viability at 72 h, 10 µM: 80.3%

## COc1ccc(C2CC(c3ccc4ccccc4c3)=NN2C2=NC(=O)/C(=C3/C(=O)Nc4ccc(OC)cc43)S2)cc1 (stereo not given)
A549 [1]
  growth at 10 µM: 3.93%
[2]
  growth at 10 µM: 1.2%
U-87 MG [3]
  growth at 10 µM: 1.13%
MDA-MB-231
  growth at 10 µM: 9.67%
MCF7 [4]
  growth at 10 µM: 3.64%
BT-474 [5]
  growth at 10 µM: 49.1%
BXPC-3 [6]
  growth at 10 µM: 5.13%
SK-OV-3
  growth at 10 µM: 41.4%
NCI-H1299 [7]
  growth at 10 µM: 9.85%
[8]
  viability at 72 h, 10 µM: 13.3%
A549 [11]
  EC50: 0.73 µM
[9]
  EC50: 0.5 µM
U-87 MG [10]
  EC50: 0.67 µM
MCF7 [12]
  EC50: 0.27 µM
BT-474 [13]
  EC50: 0.24 µM
BXPC-3 [14]
  EC50: 0.1 µM
NCI-H1299 [15]
  EC50: 0.15 µM
[16]
  EC50: 0.27 µM
